Activity calls are given as the source filed them. No cut-off for these calls is given here.
How the values were obtained:
[1] = Binding affinity to d(G4C4)2 DNA major groove assessed as stabilization of A-from DNA conformation after 30 mins by CD spectroscopic method
[2] = Displacement of fluorescein-neomycin from d(G4C4)2 DNA at 200 nM by fluorescence assay
[3] = Binding affinity to d(G4C4)2 DNA major groove assessed as stabilization of A-from DNA conformation at drug:DNA molar ratio of 4:1 after 30 mins by CD spectroscopic method
[4] = Binding affinity to d(G4C4)2 DNA major groove assessed as stabilization of A-from DNA conformation by measuring induction of sharper band at 265 nanometer at drug:DNA molar ratio of 1:1 after 30 mins by CD spectroscopic method
[5] = Displacement of fluorescein-neomycin from d(G4C4)2 DNA by Scatchard plot analysis
[6] = Displacement of thiazole orange from d(G4C4)2 DNA by Scatchard plot analysis
[7] = Displacement of fluorescein-neomycin from d(G4C4)2 DNA major groove by fluorescence titration assay
[8] = Binding affinity to d(G4C4)2 DNA major groove assessed as stabilization of A-from DNA conformation at 0.05 to 1.5 equiv after 30 mins by fluorescein-neomycin probe based CD spectroscopic method
[9] = Binding affinity to d(G4C4)2 DNA major groove assessed as stabilization of A-from DNA conformation at 0.25 to 1.5 equiv after 30 mins by thiazole orange probe based CD spectroscopic method

Row | Compound | inhibition [2] | Ka [5] [×10⁶ /M] | Ka [6] [×10⁶ /M] | other results
1 | CCO |  |  |  | Activity [1]: Active
2 | NCC1O[C@H](O[C@H]2[C@@H](O)[C@H](O[C@@H]3[C@@H](O)[C@H](N)C[C@H](N)[C@H]3O[C@H]3O[C@H](CN)[C@@H](O)[C@H](O)[C@H]3N)O[C@@H]2CNC(=S)Nc2ccc3c(c2)C(=O)c2ccccc2C3=O)[C@H](N)[C@@H](O)[C@@H]1O (some centres undefined) | Active |  |  | 
3 | CN1/C(=C/c2cc[n+](C)c3ccccc23)Sc2ccccc21 |  |  |  | Activity [3]: inactive
4 | NCCCNCCCCNCCCN |  |  |  | Activity [4]: Active
5 | NCC1O[C@H](O[C@H]2[C@@H](O)[C@H](O[C@@H]3[C@@H](O)[C@H](N)C[C@H](N)[C@H]3O[C@H]3O[C@H](CN)[C@@H](O)[C@H](O)[C@H]3N)O[C@@H]2CNC(=S)NCc2ccc3c(c2)C(=O)c2ccccc2C3=O)[C@H](N)[C@@H](O)[C@@H]1O (some centres undefined) | Active | 14.1 | 5.27 | IC50 [7]: 0.748 µM
6 | NCC1O[C@H](O[C@H]2[C@@H](O)[C@H](O[C@@H]3[C@@H](O)[C@H](N)C[C@H](N)[C@H]3O[C@H]3O[C@H](CN)[C@@H](O)[C@H](O)[C@H]3N)O[C@@H]2CSCCNC(=S)Nc2ccc3c(c2)C(=O)c2ccccc2C3=O)[C@H](N)[C@@H](O)[C@@H]1O (some centres undefined) | Active |  |  | 
7 | NCC1O[C@H](O[C@H]2[C@@H](O)[C@H](O[C@H]3[C@H](O)[C@@H](N)C[C@@H](N)[C@@H]3O[C@H]3O[C@H](CN)[C@@H](O)[C@H](O)[C@H]3N)O[C@@H]2CO)[C@H](N)[C@@H](O)[C@@H]1O (some centres undefined) | inactive |  |  | Activity [4]: Active
8 | NCC1O[C@H](O[C@H]2[C@@H](O)[C@H](O[C@@H]3[C@@H](O)[C@H](N)C[C@H](N)[C@H]3O[C@H]3O[C@H](CN)[C@@H](O)[C@H](O)[C@H]3N)O[C@@H]2CSCCNC(=S)NCCCNC(=S)NCc2ccc3c(c2)C(=O)c2ccccc2C3=O)[C@H](N)[C@@H](O)[C@@H]1O (some centres undefined) | Active |  |  | 
9 | NCC1O[C@H](O[C@H]2[C@@H](O)[C@H](O[C@@H]3[C@@H](O)[C@H](N)C[C@H](N)[C@H]3O[C@H]3O[C@H](CN)[C@@H](O)[C@H](O)[C@H]3N)O[C@@H]2CNC(=S)NCCCOCCCCOCCCNC(=S)NCc2ccc3c(c2)C(=O)c2ccccc2C3=O)[C@H](N)[C@@H](O)[C@@H]1O (some centres undefined) | Active | 8.83 | 11.8 | 
10 | NCC1O[C@H](O[C@H]2[C@@H](O)[C@H](O[C@@H]3[C@@H](O)[C@H](N)C[C@H](N)[C@H]3O[C@H]3O[C@H](CN)[C@@H](O)[C@H](O)[C@H]3N)O[C@@H]2CSCCNC(=S)NCc2ccc3c(c2)C(=O)c2ccccc2C3=O)[C@H](N)[C@@H](O)[C@@H]1O (some centres undefined) | Active | 25.3 | 3.62 | Activity [8]: Active; Activity [9]: Active
11 | OCC(F)(F)F |  |  |  | Activity [1]: Active
12 | NCC1O[C@H](O[C@H]2[C@@H](O)[C@H](O[C@@H]3[C@@H](O)[C@H](N)C[C@H](N)[C@H]3O[C@H]3O[C@H](CN)[C@@H](O)[C@H](O)[C@H]3N)O[C@@H]2CNC(=S)NCCCNC(=S)NCc2ccc3c(c2)C(=O)c2ccccc2C3=O)[C@H](N)[C@@H](O)[C@@H]1O (some centres undefined) | Active |  |  | 
13 | NCC1O[C@H](O[C@H]2[C@@H](O)[C@H](O[C@@H]3[C@@H](O)[C@H](N)C[C@H](N)[C@H]3O[C@H]3O[C@H](CN)[C@@H](O)[C@H](O)[C@H]3N)O[C@@H]2CSCCNC(=S)NCCCCCCCCCCNC(=S)NCc2ccc3c(c2)C(=O)c2ccccc2C3=O)[C@H](N)[C@@H](O)[C@@H]1O (some centres undefined) | Active |  |  | 
14 | NCC1O[C@H](O[C@H]2[C@@H](O)[C@H](O[C@@H]3[C@@H](O)[C@H](N)C[C@H](N)[C@H]3O[C@H]3O[C@H](CN)[C@@H](O)[C@H](O)[C@H]3N)O[C@@H]2CNC(=S)NCCNC(=S)NCc2ccc3c(c2)C(=O)c2ccccc2C3=O)[C@H](N)[C@@H](O)[C@@H]1O (some centres undefined) | Active | 4.88 | 3.85 | 
15 | NCC1O[C@H](O[C@H]2[C@@H](O)[C@H](O[C@@H]3[C@@H](O)[C@H](N)C[C@H](N)[C@H]3O[C@H]3O[C@H](CN)[C@@H](O)[C@H](O)[C@H]3N)O[C@@H]2CSCCNC(=S)NCCCOCCCCOCCCNC(=S)NCc2ccc3c(c2)C(=O)c2ccccc2C3=O)[C@H](N)[C@@H](O)[C@@H]1O (some centres undefined) | Active | 4.02 | 18.4 | 
16 | NCC1O[C@H](O[C@H]2[C@@H](O)[C@H](O[C@@H]3[C@@H](O)[C@H](N)C[C@H](N)[C@H]3O[C@H]3O[C@H](CN)[C@@H](O)[C@H](O)[C@H]3N)O[C@@H]2CSCCNC(=S)NCCNC(=S)NCc2ccc3c(c2)C(=O)c2ccccc2C3=O)[C@H](N)[C@@H](O)[C@@H]1O (some centres undefined) | Active | 2.28 | 3.09 | 
17 | O=C1c2ccccc2C(=O)c2ccccc21 | inactive |  |  | 
18 | NCC1O[C@H](O[C@H]2[C@@H](O)[C@H](O[C@@H]3[C@@H](O)[C@H](N)C[C@H](N)[C@H]3O[C@H]3O[C@H](CN)[C@@H](O)[C@H](O)[C@H]3N)O[C@@H]2CNC(=S)NCCCCCCCCCCNC(=S)NCc2ccc3c(c2)C(=O)c2ccccc2C3=O)[C@H](N)[C@@H](O)[C@@H]1O (some centres undefined) | Active |  |  | 
